Laboratory results reported in patent US5200409A, “Composition and use of substituted 1,3-dithiolo-and 1,4-dithiinoquinoxalines as an antimicrobial” (The Dow Chemical Company, priority 1992, dated 1993).
≈ marks a conversion by molar mass, not a printed value. Read-outs that look alike come from different tables or passages of the source.

Columns and labels:
[1] = test system: Pseudomonas aeruginosa (PRD-10); assay: Minimum inhibitory concentration (MIC) in nutrient agar; assay type: cell-based, Pseudomonas aeruginosa ATCC 15442; conditions: 48 h
Protocol: (§1) The minimum inhibitory concentration (MIC) for the compounds listed in Table I is determined for 9 bacteria, using nutrient agar: and 7 yeast and fungi, using malt yeast agar. A one percent solution of the test compound is prepared in a mixture of acetone and water. Nutrient agar is prepared at pH 6.8, representing a neutral medium, and at pH 8.2, representing an alkaline medium. The nutrient agars are prepared by adding 23 g of nutrient agar to one-liter of deionized water. In addition, the alkaline medium is prepared by adjusting a 0.04M solution of N-[tris-(hydroxymethyl)methyl]-glycine buffered deionized water with concentrated sodium hydroxide to a pH of […]. Malt yeast agar is prepared by adding 3 g yeast extract and 45 g malt agar per liter of deionized water. The specific agar is dispensed in 30 ml aliquots into 25×200 mm test tubes, capped and autoclaved for 15 minutes at 115° C. The test tubes containing the agar are cooled in a water bath until the temperature of the agar is 48° C. Then, an appropriate amount of the one percent solution of the test compound is added (except in the controls where no compound is added) to the respective test tubes so that the final concentrations are 500, 250, 100, 50, 25, 10, 5, 2.5, 1.0 and zero parts per million of the test compound in the agar, thus having a known concentration of test compound dispersed therein. The contents of the test tubes are then transferred to respective petri plates. After drying for 24 hours, the petri plates containing nutrient agar are inoculated with bacteria and those containing malt yeast agar are inoculated with yeast and fungi.
(§2) The inoculation with bacteria is accomplished by using the following procedure. Twenty-four hour-cultures of each of the bacteria are prepared by incubating the respective bacteria in tubes containing nutrient broth for 24 hours at 30° C. in a shaker. Dilutions of each of the 24 hour-cultures are made so that nine separate suspensions (one for each of the nine test bacteria) are made, each containing 10^8 colony forming units (CFU) per ml of suspension of a particular bacteria. Aliquots of 0.3 ml of each of the bacterial suspensions are used to fill the individual wells of Steer's Replicator. For each microbial suspension, 0.3 ml was used to fill three wells (i.e., three wells of 0.3 ml each) so that for the nine different bacteria, 27 wells are filled. The Steer's Replicator is then used to inoculate both the neutral and alkaline pH nutrient agar petri plates.
(§3) The inoculated petri plates are incubated at 30° C. for 48 hours and then read to determine if the test compound which is incorporated into the agar prevented growth of the respective bacteria.
(§4) Table II lists the bacteria, yeast and fungi used in the MIC test described above along with their respective American Type Culture Collection (ATCC) identification numbers.

Bacillus subtilis (Bs) = assay: as above; assay type: cell-based, Bacillus subtilis ATCC 8473
Protocol: as §1, §2, §3, §4

Trichoderma viride (Tv) = assay: Minimum inhibitory concentration (MIC) in malt yeast agar; assay type: cell-based, Trichoderma viride ATCC 8678; conditions: read-out: Minimum Inhibitory Concentration, Tv
Protocol: as §1
(§5) The inoculation with the yeast and fungi is accomplished as follows. Cultures of yeast and fungi are incubated for seven days on malt yeast agar at 30° C. These cultures are used to prepare suspensions by the following procedure. A suspension of each organism is prepared by adding 10 ml of sterile saline and 10 microliters of octylphenoxy polyethoxy ethanol to the agar slant of yeast or fungi. The sterile saline/octylphenoxy polyethoxy ethanol solution is then agitated with a sterile swab to suspend the microorganism grown on the slant. Each resulting suspension is diluted into sterile saline (1 part suspension: 9 parts sterile saline). Aliquots of these dilutions are placed in individual wells of Steer's Replicator and petri plates inoculated as previously described. The petri plates are incubated at 30° C. and read after 48 hours for yeast and 72 hours for fungi.
as §4

[2] = test system: Staphylococcus aureus (Sa); assay: Minimum inhibitory concentration (MIC) in nutrient agar; assay type: cell-based, Staphylococcus aureus ATCC 6538
Protocol: as §1, §2, §3, §4

[3] = test system: Pseudomonas aeruginosa (Pa); assay: as above; assay type: cell-based, Pseudomonas aeruginosa ATCC 10145; conditions: 48 hours
Protocol: as §1, §2, §3, §4

Candida albicans (Ca) = assay: Minimum inhibitory concentration (MIC) in malt yeast agar; assay type: cell-based, Candida albicans ATCC 10231; conditions: malt yeast agar; 30° C.; 48 hours for yeast; read-out: Minimum Inhibitory Concentration, Ca
Protocol: as §1, §5, §4

Aspergillus niger (An) = assay: as above; assay type: cell-based, Aspergillus niger ATCC 16404; conditions: malt yeast agar; 30° C.; 72 hours for fungi; read-out: Minimum Inhibitory Concentration, An
Protocol: as §1, §5, §4

[4] = test system: Aureobasidium pullulan (Ap); assay: as above; assay type: cell-based, Aureobasidium pullulan ATCC 16622; conditions: malt yeast agar; 30° C.; 48 hours for yeast and 72 hours for fungi; read-out: Minimum Inhibitory Concentration, Ap
Protocol: as §1, §5, §4

Fusarium oxysporum (Fo) = assay: as above; assay type: cell-based, Fusarium oxysporum ATCC 48112; conditions: malt yeast agar; 30° C.; 72 hours for fungi; read-out: Minimum Inhibitory Concentration, Fo
Protocol: as §1, §5, §4

[5] = test system: Saccharomyces cerevisiae (Sc); assay: as above; assay type: cell-based, Saccharomyces cerevisiae ATCC 4105; conditions: malt yeast agar, 30° C., 48 hours for yeast, read-out: Minimum Inhibitory Concentration, Sc
Protocol: as §1, §5, §4

[6] = test system: Salmonella choleraesuis (Sc); assay: Minimum inhibitory concentration (MIC) in nutrient agar; assay type: cell-based, Salmonella choleraesuis ATCC 10708; conditions: Salmonella enterica, 48 h
Protocol: as §1, §2, §3, §4

[7] = test system: Klebsiella pneumoniae (Kp); assay: as above; assay type: cell-based, Klebsiella pneumoniae ATCC 8308
Protocol: as §1, §2, §3, §4

[8] = test system: Penicillium chrysogenum (Pc); assay: Minimum inhibitory concentration (MIC) in malt yeast agar; assay type: cell-based, Penicillium chrysogenum ATCC 9480; conditions: malt yeast agar; 30° C.; 72 hours for fungi; read-out: Minimum Inhibitory Concentration, Pc
Protocol: as §1, §5, §4

[9] = test system: Enterobacter aerogenes (Ea); assay: Minimum inhibitory concentration (MIC) in nutrient agar; assay type: cell-based, Enterobacter aerogenes ATCC 13048; conditions: Klebsiella aerogenes, 48 h
Protocol: as §1, §2, §3, §4

Escherichia coli (Ec) = assay: as above; assay type: cell-based, Escherichia coli ATCC 11229; conditions: 48 h
Protocol: as §1, §2, §3, §4

Proteus vulgaris (Pv) = assay: as above; assay type: cell-based, Proteus vulgaris ATCC 881; conditions: 48 h
Protocol: as §1, §2, §3, §4

[10] = pH 6.8, read-out: Minimum Inhibitory Concentration, PRD
[11] = pH 8.2, read-out: Minimum Inhibitory Concentration, PRD
[12] = 48 h, pH 6.8, read-out: Minimum Inhibitory Concentration, Bs
[13] = 48 h, pH 8.2, read-out: Minimum Inhibitory Concentration, Bs
[14] = malt yeast agar, 30° C., 72 hours for fungi
[15] = 48 h, pH 8.2, read-out: Minimum Inhibitory Concentration, Sa
[16] = pH 6.8, nutrient agar, 30° C., 48 hours, read-out: Minimum Inhibitory Concentration, Sa
[17] = pH 6.8, read-out: Minimum Inhibitory Concentration, Sc
[18] = pH 8.2, read-out: Minimum Inhibitory Concentration, Sc
[19] = 48 h, pH 8.2, read-out: Minimum Inhibitory Concentration, Kp
[20] = pH 6.8, nutrient agar, 30° C., 48 hours, read-out: Minimum Inhibitory Concentration, Kp
[21] = pH 6.8, read-out: Minimum Inhibitory Concentration, Ea
[22] = pH 8.2, read-out: Minimum Inhibitory Concentration, Ea
[23] = pH 6.8, read-out: Minimum Inhibitory Concentration, Ec
[24] = pH 8.2, read-out: Minimum Inhibitory Concentration, Ec
[25] = pH 6.8, read-out: Minimum Inhibitory Concentration, Pv
[26] = pH 8.2, read-out: Minimum Inhibitory Concentration, Pv

SMILES	MIC [1, 10]	MIC [1, 11]	MIC (Bacillus subtilis (Bs); [12])	MIC ([3]; pH 6.8, 30° C.)	MIC ([3]; pH 8.2, 30° C.)	MIC (Candida albicans (Ca))	MIC (Aspergillus niger (An))	MIC (Fusarium oxysporum (Fo))	MIC [5]	MIC [6, 17]	MIC [6, 18]	MIC [7, 19]	MIC [7, 20]	MIC [8]	MIC [9, 21]	MIC [9, 22]	MIC (Escherichia coli (Ec); [23])	MIC (Escherichia coli (Ec); [24])	MIC (Proteus vulgaris (Pv); [25])	MIC (Proteus vulgaris (Pv); [26])	also measured
N#CC(C#N)=C1Sc2nc3ccccc3nc2S1 [Compound P, 1,3-dithiolo-(4,5-b)-quinoxaline-2-ylidene-propanedinitrile]	> 500 µg/mL	> 500 µg/mL	> 500 µg/mL	> 500 µg/mL	> 500 µg/mL	> 500 µg/mL	500 µg/mL (≈ 1860 µM)	> 500 µg/mL	> 500 µg/mL	> 500 µg/mL	> 500 µg/mL	> 500 µg/mL	> 500 µg/mL	500 µg/mL (≈ 1860 µM)	> 500 µg/mL	> 500 µg/mL	> 500 µg/mL	> 500 µg/mL	> 500 µg/mL	> 500 µg/mL	MIC (Bacillus subtilis (Bs); [13]): > 500 µg/mL; MIC (Trichoderma viride (Tv); [14]): > 500 µg/mL; MIC [2, 15]: > 500 µg/mL; MIC [2, 16]: > 500 µg/mL; MIC [4]: 500 µg/mL (≈ 1860 µM)
COc1ccc2nc3c(nc2c1)SC(C#N)=C(C#N)S3 [J, 7-methoxy-1,4-dithiino-(2,3-b)-quinoxaline-2,3-dicarbonitrile]	> 500 µg/mL	> 500 µg/mL		> 500 µg/mL	> 500 µg/mL	25 µg/mL (≈ 83.8 µM)	25 µg/mL (≈ 83.8 µM)	25 µg/mL (≈ 83.8 µM)	< 10 µg/mL	> 500 µg/mL	> 500 µg/mL	> 500 µg/mL	> 500 µg/mL	25 µg/mL (≈ 83.8 µM)	> 500 µg/mL	> 500 µg/mL	> 500 µg/mL	> 500 µg/mL	> 500 µg/mL	> 500 µg/mL	MIC (Bacillus subtilis (Bs); pH 6.8, nutrient agar, 30° C., 48 hours, read-out: Minimum Inhibitory Concentration, Bs): < 10 µg/mL; MIC (Bacillus subtilis (Bs); pH 8.2, nutrient agar, 30° C., 48 hours, read-out: Minimum Inhibitory Concentration, Bs): 25 µg/mL (≈ 83.8 µM); MIC (Trichoderma viride (Tv); 72 h): 100 µg/mL (≈ 335 µM); MIC ([2]; 48 h, pH 6.8, read-out: Minimum Inhibitory Concentration, Sa): < 10 µg/mL; MIC ([2]; pH 8.2, nutrient agar, 30° C., 48 hours, read-out: Minimum Inhibitory Concentration, Sa): 25 µg/mL (≈ 83.8 µM)
COc1ccc2nc3c(nc2c1)SC(=C(C#N)C#N)S3 [U, 6-Methoxy-1,3-dithiolo-(4,5-b)-quinoxaline-2-ylidene-propanedinitrile]	> 500 µg/mL	> 500 µg/mL	> 500 µg/mL	> 500 µg/mL	> 500 µg/mL	> 500 µg/mL	> 500 µg/mL	> 500 µg/mL	> 500 µg/mL	> 500 µg/mL	> 500 µg/mL	> 500 µg/mL	> 500 µg/mL	> 500 µg/mL	> 500 µg/mL	> 500 µg/mL	> 500 µg/mL	> 500 µg/mL	> 500 µg/mL	> 500 µg/mL	MIC (Bacillus subtilis (Bs); [13]): > 500 µg/mL; MIC (Trichoderma viride (Tv); [14]): > 500 µg/mL; MIC [2, 15]: > 500 µg/mL; MIC [2, 16]: > 500 µg/mL
